For 15 compounds, EC50 results are on record in patent publication US8906929B2, “Inhibitors of human immunodeficiency virus replication” (priority 2012, dated 2014).

This assay deals with recombinant NL-Rluc virus. In words: Inhibition of HIV replication (NL-RLuc virus in MT-2 cells, luciferase readout). It counts as cell-based. Conditions: Human immunodeficiency virus 1, MT2, 120 h, 5 days of incubation, 10% FBS.
For orientation: EC50 means the midpoint of the concentration-response curve. In the case of `Cc1nc2cc3nn2c(c1[C@H](OC(C)(C)C)C(=O)O)N1CCC(C)(/C=C/C=C\CCc2ccccc2-c2cccc-3c2)CC1` [Example 39, (2S)-2-(tert-Butoxy)-2-[(23Z,25E)-4,27-dimethyl-1,5,7,8-tetraazahexacyclo[25.2.2.1^6,^9.1^10,^14.0^2,^7.0^15,^20]tritriaconta-2,4,6(33),8,10(32),11,13, 15(20), 16,18,23,25-dodecaen-3-yl]acetic acid], the EC50 is 118 nM.

On to `Cc1nc2cc3nn2c(c1[C@H](OC(C)(C)C)C(=O)O)N1CCC(C)(/C=C/C=C/CCc2ccccc2-c2cccc-3c2)CC1` [Example 40, (2S)-2-(tert-Butoxy)-2-[(23E,25E)-4,27-dimethyl-1,5,7,8-tetraazahexacyclo[25.2.2.1^6,^9.1^10,^14.0^2,^7.0^15,^20]tritriaconta-2,4,6(33),8,10(32),11,13, 15(20), 16,18,23,25-dodecaen-3-yl]acetic acid], for which the EC50 was determined as 34 nM. In the case of `Cc1nc2cc3nn2c(c1[C@H](OC(C)(C)C)C(=O)O)N1CCC(C)(CCCCCCc2ccccc2-c2cccc-3c2)CC1` [Example 41, (2S)-2-(tert-Butoxy)-2-{4,27-dimethyl-1,5,7,8-tetraazahexacyclo[25.2.2.1^6,^9.1^10,^14.0^2,^7.0^15,^20]tritriaconta-2,4,6(33),8,10(32), 11,13,15(20),16,18-decaen-3-yl}acetic acid] it was 180 nM; in that of `Cc1nc2cc3nn2c(c1[C@H](OC(C)(C)C)C(=O)O)N1CCC(C)(/C=C/C=C\COc2ccc(Cl)cc2-c2cccc-3c2)CC1` [Example 42, (2S)-2-(tert-Butoxy)-2-[(23Z,25E)-17-chloro-4,27-dimethyl-21-oxa-1,5,7,8-tetraazahexacyclo[25.2.2.1^6,^9.1^10,^14.0^2,^7.0^15,^20]tritriaconta-2,4,6(33),8,10(32), 11, 13, 15(20),16,18,23,25-dodecaen-3-yl]acetic acid], 35 nM.

Regarding `Cc1nc2cc3nn2c(c1[C@H](OC(C)(C)C)C(=O)O)N1CCC(C)(/C=C/C=C/COc2ccc(Cl)cc2-c2cccc-3c2)CC1` [Example 43, (2S)-2-(tert-Butoxy)-2-[(23E,25E)-17-chloro-4,27-dimethyl-21-oxa-1,5,7,8-tetraazahexacyclo[25.2.2.1^6,^9.1^10,^14.0^2,^7.0^15,^20]tritriaconta-2,4,6(33),8,10(32), 11, 13, 15(20),16,18,23,25-dodecaen-3-yl]acetic acid], the EC50 turned out to be 134 nM. Under `Cc1nc2cc3nn2c(c1[C@H](OC(C)(C)C)C(=O)O)N1CCC(C)(CCCCCOc2ccc(Cl)cc2-c2cccc-3c2)CC1` [Example 44, (2S)-2-(tert-Butoxy)-2-{17-chloro-4,27-dimethyl-21-oxa-1,5,7,8-tetraazahexacyclo[25.2.2.1^6,^9.1^10,^14.0^2,^7.0^15,^20]tritriaconta-2,4, 6(33), 8, 10(32), 11, 13, 15 (20),16,18-decaen-3-yl}acetic acid] stands 41 nM.

As for `Cc1nc2cc3nn2c(c1[C@H](OC(C)(C)C)C(=O)O)N1CCC(C)(/C=C/CCCOc2ccc(Cl)cc2-c2cccc-3c2)CC1` [Example 45, (2S)-2-(tert-Butoxy)-2-[(25E)-17-chloro-4,27-dimethyl-21-oxa-1,5,7,8-tetraazahexacyclo[25.2.2.1^6,^9.1^10,^14.0^2,^7.0^15,^20]tritriaconta-2,4,6(33),8,10(32),11,13,15(20),16,18,25-undecaen-3-yl]acetic acid], the EC50 was determined as 33 nM.

Regarding `Cc1nc2cc3nn2c(c1[C@H](OC(C)(C)C)C(=O)O)N1CCC(C)(CC1)OCCCCCc1ncccc1-c1cccc-3c1` [Example 46, (2S)-2-(tert-Butoxy)-2-{4,27-dimethyl-26-oxa-1,5,7,8,19-pentaazahexacyclo[25.2.2.1^6,^9.1^10,^14.0^2,^7.0^15,^20]tritriaconta-2,4,6(33),8,10(32),11,13,15(20),16,18-decaen-3-yl}acetic acid], the EC50 is 10 nM. In the case of `Cc1nc2cc3nn2c(c1[C@H](OC(C)(C)C)C(=O)O)N1CCC(C)(CC1)OC/C=C\COc1cc(F)ccc1-c1cccc-3c1` [Example 47, (2S)-2-(tert-Butoxy)-2-[(23Z)-18-fluoro-4,2,7-dimethyl-21,26-dioxa-1,5,7,8-tetraazahexacyclo[25.2.2.1^6,^9.1^10,^14.0^2,^7.0^15,^20]tritriaconta-2,4,6(33),8,10(32),11,13,15(20),16,18,23-undecaen-3-yl]acetic acid] it was 14 nM; in that of `Cc1nc2cc3nn2c(c1[C@H](OC(C)(C)C)C(=O)O)N1CCC(C)(CC1)OC/C=C/COc1cc(F)ccc1-c1cccc-3c1` [Example 48, (2S)-2-(tert-Butoxy)-2-[(23E)-18-fluoro-4,2,7-dimethyl-21,26-dioxa-1,5,7,8-tetraazahexacyclo[25.2.2.1^6,^9.1^10,^14.0^2,^7.0^15,^20]tritriaconta-2,4,6(33),8,10(32),11,13,15(20),16,18,23-undecaen-3-yl]acetic acid], 11 nM. In the case of `Cc1nc2cc3nn2c(c1[C@H](OC(C)(C)C)C(=O)O)N1CCC(C)(CC1)OCCCCOc1cc(F)ccc1-c1cccc-3c1` [Example 49, (2S)-2-(tert-Butoxy)-2-{18-fluoro-4,27-dimethyl-21,26-dioxa-1,5,7,8-tetraazahexacyclo[25.2.2.1^6,^9.1^10,^14.0^2,^7.0^15,^20]tritriaconta-2,4,6(33),8,10(32),11,13,15(20),16,18-decaen-3-yl}acetic acid] it was 9 nM; in that of `Cc1nc2cc3nn2c(c1[C@H](OC(C)(C)C)C(=O)O)N1CCC(C)(CC/C=C/CCc2ccncc2-c2cccc-3c2)CC1` [Example 50, (2S)-2-(tert-Butoxy)-2-[(23E)-4,27-dimethyl-1,5,7,8,17-pentaazahexacyclo[25.2.2.1^6,^9.1^10,^14.0^2,^7.0^15,^20]tritriaconta-2,4,6(33),8,10(32),11,13,15(20),16,18,23-undecaen-3-yl]acetic acid], 6 nM; in that of `Cc1nc2cc3nn2c(c1[C@H](OC(C)(C)C)C(=O)O)N1CCC(C)(CC/C=C\CCc2ccncc2-c2cccc-3c2)CC1` [Example 51, (2S)-2-(tert-Butoxy)-2-[(23Z)-4,27-dimethyl-1,5,7,8,17-pentaazahexacyclo[25.2.2.1^6,^9.1^10,^14.0^2,^7.0^15,^20]tritriaconta-2,4,6(33),8,10(32),11,13,15(20),16,18,23-undecaen-3-yl]acetic acid], 6 nM. For `Cc1nc2cc3nn2c(c1[C@H](OC(C)(C)C)C(=O)O)N1CCC(C)(CCCCCCc2ccncc2-c2cccc-3c2)CC1` [Example 52, (2S)-2-(tert-Butoxy)-2-{4,27-dimethyl-1,5,7,8,17-pentaazahexacyclo[25.2.2.1^6,^9.1^10,^14.0^2,^7.0^15,^20]tritriaconta-2,4,6(33),8,10(32),11,13,15(20),16,18-decaen-3-yl}acetic acid], the concentration for a half-maximal effect (EC50) stood at 5 nM.

In the case of `Cc1ccc2c(c1)-c1cccc(c1)-c1cc3nc(C)c([C@H](OC(C)(C)C)C(=O)O)c(n3n1)N1CCC(C)(CC1)OC/C=C/C[C@H](C)O2` [Example 53, (2S)-2-(tert-Butoxy)-2-[(22S,^24E)-4,17,22,28-tetramethyl-21,27-dioxa-1,5,7,8-tetraazahexacyclo[26.2.2.1^6,^9.1^10,^14.0^2,^7.0^15,^20]tetratriaconta-2,4,6(34),8,10(33),11,13,15(20),16,18,24-undecaen-3-yl]acetic acid], the 50% effective concentration (EC50) came out at 10 nM.
